In patent US12281149B2, “Modulators of G-protein coupled receptors” (priority 2021, dated 2025):
pEC50: −log10 of the molar value. *1 amine or outer side, *2 acyl side, *3 side chain or, on linkers, in order; H or OH if unused. Where a SMILES comes first, the peptide text is derived from it. Side-chain parts run from the residue outwards. [ ]: non-standard residue; d: D form. The star is where a group is joined. Isobutyryl(2-(3-CN-5-F-Ph)) = CC(C)(C(=O)*)c1cc(F)cc(C#N)c1; Azetidine3carboxylic = O=C(C1CN([*:1])C1)[*:2]; C20 diacid = O=C(O)CCCCCCCCCCCCCCCCCCC(=O)*; γGlu = O=C(O)[C@H](CCC(=O)[*:2])N[*:1]; X43 = O=C1CCC(C(=O)*)(c2ccccc2)CN1; X19 = O=C1COc2ccccc2N1CCNCCC(=O)*; X47 = O=C(CCNCc1cc(O)cc(Cl)c1)*; X15 = O=C(C1(c2cccc(F)c2)CC1)*; AEEA = NCCOCCOCC(=O)O; Aib = CC(C)(N)C(=O)O; βAla = NCCC(=O)O

Tests used:
Type in all cases: cell-based
GIP receptor [1] = target: T1, GIP receptor (Homo sapiens, UniProt P48546); experiment: PathHunter β-arrestin assay, GIP receptor; design: host or cells: PathHunter CHO-K1 GIPR β-Arrestin Cell Line; conditions: β-arrestin-2 recruitment, PathHunter CHO-K1 GIPR β-Arrestin Cell Line, 90 min at 37° C.; normalized to GIP; read-out: GIPR β Arrestin EC50
T1 sequence (P48546 22-466): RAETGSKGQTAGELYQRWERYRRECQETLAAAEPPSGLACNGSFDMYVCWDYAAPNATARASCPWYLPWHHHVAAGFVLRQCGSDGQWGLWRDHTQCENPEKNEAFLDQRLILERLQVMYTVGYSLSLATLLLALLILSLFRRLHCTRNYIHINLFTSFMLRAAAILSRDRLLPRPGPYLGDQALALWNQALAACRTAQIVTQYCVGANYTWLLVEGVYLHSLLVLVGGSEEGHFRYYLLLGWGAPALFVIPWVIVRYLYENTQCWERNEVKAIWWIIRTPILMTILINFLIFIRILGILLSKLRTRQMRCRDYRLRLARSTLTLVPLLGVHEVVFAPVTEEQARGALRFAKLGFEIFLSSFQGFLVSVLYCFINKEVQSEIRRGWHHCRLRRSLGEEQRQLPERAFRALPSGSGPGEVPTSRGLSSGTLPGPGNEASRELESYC

GLP-1 receptor [2] = target: T2, GLP-1 receptor (Homo sapiens, UniProt P43220); experiment: HitHunter cAMP assay, GLP-1 receptor; conditions: for pEC50: CHO cells stably expressing human GLP-1 receptor, cAMP accumulation, 30 min, read-out: EC50 GLP-1R; for Emax: CHO cells, cAMP, normalized to maximum signal from GLP-1 (high) and DMSO (low), read-out: Emax GLP-1R
GLP-1 receptor [3] = target: T2, GLP-1 receptor; experiment: PathHunter β-arrestin assay, GLP-1 receptor; design: host or cells: PathHunter CHO-K1 GLP1R β-Arrestin Cell Line; conditions: β-arrestin-2 recruitment, PathHunter CHO-K1 GLP1R β-Arrestin Cell Line, 90 min at 37° C.; normalized to GLP-1; read-out: GLP-1R β Arrestin EC50
GIP receptor [4] = target: T1, GIP receptor; experiment: HitHunter cAMP assay, GIP receptor; conditions: for pEC50: CHO cells stably expressing GIP receptor, cAMP accumulation, 30 min, read-out: EC50 GIP-1R; for Emax: CHO cells, cAMP, normalized to maximum signal from GIP (high) and DMSO (low), read-out: Emax GIP-1R

T2 sequence (P43220 24-463): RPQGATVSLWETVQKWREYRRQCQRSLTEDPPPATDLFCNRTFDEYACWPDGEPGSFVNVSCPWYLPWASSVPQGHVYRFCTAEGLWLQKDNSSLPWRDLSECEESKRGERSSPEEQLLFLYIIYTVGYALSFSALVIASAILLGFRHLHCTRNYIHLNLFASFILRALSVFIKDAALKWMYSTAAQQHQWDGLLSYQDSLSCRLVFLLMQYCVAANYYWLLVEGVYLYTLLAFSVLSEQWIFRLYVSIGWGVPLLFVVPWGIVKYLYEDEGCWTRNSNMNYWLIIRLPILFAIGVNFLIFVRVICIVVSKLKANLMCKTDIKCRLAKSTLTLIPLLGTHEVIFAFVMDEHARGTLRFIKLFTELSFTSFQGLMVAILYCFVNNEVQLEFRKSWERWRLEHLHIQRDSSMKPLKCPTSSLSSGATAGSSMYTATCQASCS

SMILES | pEC50 (GIP receptor [1]) | pEC50 (GLP-1 receptor [2]) | Emax (GLP-1 receptor [2]) | pEC50 (GLP-1 receptor [3]) | pEC50 (GIP receptor [4]) | Emax (GIP receptor [4])
CC[C@H](C)[C@H](NC(=O)[C@H](CO)NC(=O)[C@H](CCCCNC(=O)COCCOCCNC(=O)COCCOCCNC(=O)CC[C@H](NC(=O)CCCCCCCCCCCCCCCCCCC(=O)O)C(=O)O)NC(=O)[C@H](CC(=O)O)NC(=O)[C@H](CO)NC(=O)[C@@H](NC(=O)[C@H](Cc1ccccc1)NC(=O)[C@@H](NC(=O)CNC(=O)[C@H](CCC(=O)O)NC(=O)CCNC(=O)C1(c2ccccc2)CCC(=O)NC1)[C@@H](C)O)[C@@H](C)O)C(=O)N[C@@H](Cc1ccc(O)cc1)C(=O)N[C@@H](CC(C)C)C(=O)N[C@@H](CC(=O)O)C(=O)N[C@@H](CCCCN)C(=O)N[C@@H](CCC(N)=O)C(=O)N[C@@H](C)C(=O)N[C@@H](C)C(=O)NC(C)(C)C(=O)N[C@@H](CCC(=O)O)C(=O)N[C@@H](Cc1ccccc1)C(=O)N[C@H](C(=O)N[C@@H](CC(N)=O)C(=O)N[C@@H](Cc1c[nH]c2ccccc12)C(=O)N[C@@H](CC(C)C)C(=O)N[C@@H](CC(C)C)C(=O)N[C@@H](C)C(=O)NCC(=O)NCC(=O)N1CCC[C@H]1C(=O)N[C@@H](CO)C(=O)N[C@@H](CO)C(=O)NCC(=O)N[C@@H](C)C(=O)N1CCC[C@H]1C(=O)N1CCC[C@H]1C(=O)N1CCC[C@H]1C(=O)N[C@@H](CO)C(N)=O)C(C)C (stereo partly drawn) [Compound 153] ({X43-βAla}-EGTFTSDK([AEEA-AEEA-γGlu-C20 diacid])SIYLDKQAA[Aib]EFVNWLLAGGPSSGAPPPS-NH2) | < 6.00 | 9.00 to 10.00 | 101% | < 6.00 | 8.00 to 9.00 | 105%
CC[C@H](C)[C@H](NC(=O)[C@H](CC(C)C)NC(=O)[C@H](Cc1c[nH]c2ccccc12)NC(=O)[C@H](CCC(N)=O)NC(=O)[C@@H](NC(=O)[C@H](Cc1ccccc1)NC(=O)[C@H](C)NC(=O)[C@H](CCCCNC(=O)COCCOCCNC(=O)COCCOCCNC(=O)CC[C@H](NC(=O)CCCCCCCCCCCCCCCCCCC(=O)O)C(=O)O)NC(=O)[C@H](CCC(N)=O)NC(=O)[C@H](C)NC(=O)[C@@H](NC(=O)[C@H](CCCCN)NC(=O)[C@H](CC(=O)O)NC(=O)[C@H](CC(C)C)NC(=O)C(C)(C)NC(=O)[C@@H](NC(=O)[C@H](CO)NC(=O)[C@H](Cc1ccc(O)cc1)NC(=O)[C@H](CC(=O)O)NC(=O)[C@H](CO)NC(=O)[C@@H](NC(=O)[C@H](Cc1ccccc1)NC(=O)[C@@H](NC(=O)CNC(=O)[C@H](CCC(=O)O)NC(=O)C1CN(C(=O)C(C)(C)c2cc(F)cc(C#N)c2)C1)[C@@H](C)O)[C@@H](C)O)[C@@H](C)CC)[C@@H](C)CC)C(C)C)C(=O)N[C@@H](C)C(=O)NCC(=O)NCC(=O)N1CCC[C@H]1C(=O)N[C@@H](CO)C(=O)N[C@@H](CO)C(=O)NCC(=O)N[C@@H](C)C(=O)N1CCC[C@H]1C(=O)N1CCC[C@H]1C(=O)N1CCC[C@H]1C(=O)N[C@@H](CO)C(N)=O [Compound 213] ({Isobutyryl(2-(3-CN-5-F-Ph))}-[Azetidine3carboxylic]EGTFTSDYSI[Aib]LDKIAQK([AEEA-AEEA-γGlu-C20 diacid])AFVQWLIAGGPSSGAPPPS-NH2) | < 6.00 | 6.00 to 7.00 | 78% | < 6.00 | 6.00 to 7.00 | 92%
CC[C@H](C)[C@H](NC(=O)[C@H](CC(C)C)NC(=O)[C@H](Cc1c[nH]c2ccccc12)NC(=O)[C@H](CCC(N)=O)NC(=O)[C@@H](NC(=O)[C@H](Cc1ccccc1)NC(=O)[C@H](C)NC(=O)[C@H](CCCCNC(=O)COCCOCCNC(=O)COCCOCCNC(=O)CC[C@H](NC(=O)CCCCCCCCCCCCCCCCCCC(=O)O)C(=O)O)NC(=O)[C@H](CCC(N)=O)NC(=O)[C@H](C)NC(=O)[C@@H](NC(=O)[C@H](CCCCN)NC(=O)[C@H](CC(=O)O)NC(=O)[C@H](CC(C)C)NC(=O)C(C)(C)NC(=O)[C@@H](NC(=O)[C@H](CO)NC(=O)[C@H](Cc1ccc(O)cc1)NC(=O)[C@H](CC(=O)O)NC(=O)[C@H](CO)NC(=O)[C@@H](NC(=O)[C@H](Cc1ccccc1)NC(=O)[C@@H](NC(=O)CNC(=O)[C@H](CCC(=O)O)NC(=O)CCNC(=O)C1(c2cccc(F)c2)CC1)[C@@H](C)O)[C@@H](C)O)[C@@H](C)CC)[C@@H](C)CC)C(C)C)C(=O)N[C@@H](C)C(=O)NCC(=O)NCC(=O)N1CCC[C@H]1C(=O)N[C@@H](CO)C(=O)N[C@@H](CO)C(=O)NCC(=O)N[C@@H](C)C(=O)N1CCC[C@H]1C(=O)N1CCC[C@H]1C(=O)N1CCC[C@H]1C(=O)N[C@@H](CO)C(N)=O [Compound 206] ({X15-βAla}-EGTFTSDYSI[Aib]LDKIAQK([AEEA-AEEA-γGlu-C20 diacid])AFVQWLIAGGPSSGAPPPS-NH2) | < 6.00 | 8.00 to 9.00 | 98% | < 6.00 | 7.00 to 8.00 | 106%
CC[C@H](C)[C@H](NC(=O)[C@H](CC(C)C)NC(=O)[C@H](Cc1c[nH]c2ccccc12)NC(=O)[C@H](CCC(N)=O)NC(=O)[C@@H](NC(=O)[C@H](Cc1ccccc1)NC(=O)[C@H](C)NC(=O)[C@H](CCCCNC(=O)COCCOCCNC(=O)COCCOCCNC(=O)CC[C@H](NC(=O)CCCCCCCCCCCCCCCCCCC(=O)O)C(=O)O)NC(=O)[C@H](CCC(N)=O)NC(=O)[C@H](C)NC(=O)[C@@H](NC(=O)[C@H](CCCCN)NC(=O)[C@H](CC(=O)O)NC(=O)[C@H](CC(C)C)NC(=O)C(C)(C)NC(=O)[C@@H](NC(=O)[C@H](CO)NC(=O)[C@H](Cc1ccc(O)cc1)NC(=O)[C@H](CC(=O)O)NC(=O)[C@H](CO)NC(=O)[C@@H](NC(=O)[C@H](Cc1ccccc1)NC(=O)[C@@H](NC(=O)CNC(=O)[C@H](CCC(=O)O)NC(=O)CCNCc1cc(O)cc(Cl)c1)[C@@H](C)O)[C@@H](C)O)[C@@H](C)CC)[C@@H](C)CC)C(C)C)C(=O)N[C@@H](C)C(=O)NCC(=O)NCC(=O)N1CCC[C@H]1C(=O)N[C@@H](CO)C(=O)N[C@@H](CO)C(=O)NCC(=O)N[C@@H](C)C(=O)N1CCC[C@H]1C(=O)N1CCC[C@H]1C(=O)N1CCC[C@H]1C(=O)N[C@@H](CO)C(N)=O [Compound 275] (X47-EGTFTSDYSI[Aib]LDKIAQK([AEEA-AEEA-γGlu-C20 diacid])AFVQWLIAGGPSSGAPPPS-NH2) | < 6.00 | 8.00 to 9.00 | 99% | < 6.00 | 7.00 to 8.00 | 17%
CC[C@H](C)[C@H](NC(=O)[C@H](CC(C)C)NC(=O)[C@H](Cc1c[nH]c2ccccc12)NC(=O)[C@H](CCC(N)=O)NC(=O)[C@@H](NC(=O)[C@H](Cc1ccccc1)NC(=O)[C@H](C)NC(=O)[C@H](CCCCNC(=O)COCCOCCNC(=O)COCCOCCNC(=O)CC[C@H](NC(=O)CCCCCCCCCCCCCCCCCCC(=O)O)C(=O)O)NC(=O)[C@H](CCC(N)=O)NC(=O)[C@H](C)NC(=O)[C@@H](NC(=O)[C@H](CCCCN)NC(=O)[C@H](CC(=O)O)NC(=O)[C@H](CC(C)C)NC(=O)C(C)(C)NC(=O)[C@@H](NC(=O)[C@H](CO)NC(=O)[C@H](Cc1ccc(O)cc1)NC(=O)[C@H](CC(=O)O)NC(=O)[C@H](CO)NC(=O)[C@@H](NC(=O)[C@H](Cc1ccccc1)NC(=O)[C@@H](NC(=O)CNC(=O)[C@H](CCC(=O)O)NC(=O)CCNCCN1C(=O)COc2ccccc21)[C@@H](C)O)[C@@H](C)O)[C@@H](C)CC)[C@@H](C)CC)C(C)C)C(=O)N[C@@H](C)C(=O)NCC(=O)NCC(=O)N1CCC[C@H]1C(=O)N[C@@H](CO)C(=O)N[C@@H](CO)C(=O)NCC(=O)N[C@@H](C)C(=O)N1CCC[C@H]1C(=O)N1CCC[C@H]1C(=O)N1CCC[C@H]1C(=O)N[C@@H](CO)C(N)=O [Compound 276] (X19-EGTFTSDYSI[Aib]LDKIAQK([AEEA-AEEA-γGlu-C20 diacid])AFVQWLIAGGPSSGAPPPS-NH2) | < 6.00 | 7.00 to 8.00 | 95% | < 6.00 | 6.00 to 7.00 | 35%
